Three molecules from patent US6716826B2, “Compounds and their uses” (Rodaris Pharmaceuticals Limited, priority 2000, dated 2004) can be followed below.

For one experiment, the system named is PKA. As to the kind of experiment: PKA inhibition assay. The format is biochemical. An excerpt:
(§1) Methods for obtaining A-type and P-type mediators are set out in Caro et al, 1997, and in WO98/11116 and WO98/11117. Protocols for determining characteristic IPG biological activities such as PDH activation, PKA inhibition, acetylCoA activation, fructose-1,6-bis-phosphatase activity and lipogenesis are well known in the art, e.g. as described in Caro et al ^[14].
(§2) The compounds of the invention can be tested for one or more the characteristic IPGP and/or IPG-A activities mentioned above to determine whether they will be suitable for use a IPG mimetics or antagonists. Preferred assays measure the effect of the compounds on PDH phosphatasc, PKA or lipogenesis. Protocols for these assays are provided in Caro et al ^[14].

A further experiment relates to PDH phosphatase. Nature of the experiment: PDH activation assay. It is filed as biochemical.
From the text: as §1, §2

The structures appear in SMILES notation.

For the molecule `NC1C(OC2C(O)C(O)C(O)C(O)C2O)OC(CO)C(OC2OC(CO)C(O)C(O)C2O)C1O` [RGL1014, O-α-D-Galactopyranosyl-(1-4)-(2-amino-2-deoxy-α-D-glucopyranosyl)-(1-6)-D-myo-inositol], the “PKA inhibition at 0.1 μM” value with PKA came to 2%.
For the molecule `NC1C(OC2C(O)C(O)C(O)C(O)C2O)OC(CO)C(OC2OC(CO)C(O)C(O)C2O)C1O` [RGL1021, O-(α-D-galactopyranosyl)-(1-4)-(2-amino-2-deoxy-α-D-glucopyranosyl)-(1-6)-D-chiro-inositol], in the experiment with PDH phosphatase, the “PDH activation at 100 μM” value is 14%.
For the molecule `NC1C(OC2C(O)C(O)C(O)C(O)C2OP(=O)(O)O)OC(CO)C(OC2OC(CO)C(O)C(O)C2O)C1O` [RGL1022, O-α-D-galactopyranosyl-(1-4)-2-ammonio-2-deoxy-α-D-glucopyranosyl-(1-6)-D-chiro-inositol-1-phosphate], in the experiment on PKA, the “PKA inhibition at 0.1 μM” value turned out to be 47%.
